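Five compound concentrations were applied to cells in 96-well plates for 48 hours; endpoints were derived by simple linear interpolation of the resulting dose-response curve. Abbreviation: GI50, concentration required for 50% inhibition of growth. TGI: concentration producing complete growth inhibition.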
Columns and labels:
Assay in all cases: NCI tumour cell line growth inhibition, 48 h
MDA-N = test system: MDA-N
DLD-1 colon = test system: DLD-1 colon
DMS 273 small cell lung = test system: DMS 273 small cell lung
KM20L2 colon = test system: KM20L2 colon
M19-MEL melanoma = test system: M19-MEL melanoma
SNB-78 CNS = test system: SNB-78 CNS
XF 498 CNS = test system: XF 498 CNS
HOP-18 NSCLC = test system: HOP-18 NSCLC
RXF-631 renal = test system: RXF-631 renal

Compound	TGI (MDA-N)	TGI (DLD-1 colon)	TGI (DMS 273 small cell lung)	TGI (KM20L2 colon)	TGI (M19-MEL melanoma)	TGI (SNB-78 CNS)	TGI (XF 498 CNS)	TGI (HOP-18 NSCLC)	TGI (RXF-631 renal)	further results
CC(=O)OC(C)(C)/C=C/C(=O)[C@](C)(O)[C@H]1[C@H](O)C[C@@]2(C)[C@@H]3CC=C4[C@@H](C[C@H](O)C(=O)C4(C)C)[C@]3(C)C(=O)C[C@]12C	2.39 µM									
COC(=O)c1ccc(N=NN(C)CO)cc1		> 100 µM	> 100 µM	> 100 µM	> 100 µM	> 100 µM	9.97 µM			
CS(=O)c1ccc(COP(N)(=O)N(CCCl)CCCl)cc1 (stereo not drawn)		> 100 µM	> 100 µM	> 100 µM	> 100 µM	> 100 µM	> 100 µM			
CCOC(=O)CC1=CSC2=NCCN12		> 100 µM	> 100 µM	> 100 µM	> 100 µM	> 100 µM	> 100 µM	> 100 µM	> 100 µM	
O=S1(=O)C[C@@H](O)[C@H](O)CS1		> 100 µM	> 100 µM	> 100 µM	> 100 µM	> 100 µM	> 100 µM	> 100 µM		
Cc1c2cc[nH]c(=O)c2cc2c(=O)c3cnccc3[nH]c12		> 100 µM	> 100 µM	> 100 µM	> 100 µM	> 100 µM		> 100 µM		
CC(C)(O)C1OCC(C2CCC3(C)C4=CCC5C(C)(C)C(O)CCC5(C)C4CCC23C)CC1O (stereo not drawn)	41.8 µM									
O=C1C(=O)c2ccccc2C(O)=C1C(CCc1ccccc1)C1=C(O)c2ccccc2C(=O)C1=O	34.3 µM									
CCOC(=O)C(C)c1cc(C2(C)OCCO2)c(C)o1 (stereo not drawn)		> 100 µM	> 100 µM	> 100 µM	> 100 µM	> 100 µM	> 100 µM	> 100 µM	> 100 µM	
CC(C(=O)Oc1ccc2ccccc2c1-c1c(O)ccc2ccccc12)c1ccccc1 (stereo not drawn)					30.6 µM	33.9 µM	27.3 µM		33.7 µM	
COC(=O)c1c(CC#N)cccc1CC#N		> 100 µM	> 100 µM	> 100 µM	> 100 µM		> 100 µM		> 100 µM	
ON=C1CCC(c2ccccc2)CC1 (stereo not drawn)		> 100 µM	> 100 µM	> 100 µM	> 100 µM	> 100 µM	> 100 µM	> 100 µM		
COc1c(O)ccc2c1CN1CCc3cc4c(cc3C1C2)OCO4 (stereo not drawn)	> 80.8 µM									
COC(=O)C(Nc1ccc(OC)cc1)c1ccccc1 (stereo not drawn)	> 100 µM									
CCOC(=O)c1ccc(N2C(=O)/C(=C\OC)c3ccccc3C2=O)cc1			> 100 µM	> 100 µM	> 100 µM	> 100 µM				
Nc1c(-c2nc3ccccc3[nH]2)sc(=S)n1-c1ccccc1		> 100 µM	> 100 µM		> 100 µM	> 100 µM			> 100 µM	
O=C([CH-]C(=O)c1ccccc1)c1ccccc1.O=C([CH-]C(=O)c1ccccc1)c1ccccc1.[Nd+3].[OH-].[OH3+]				28.8 µM						GI50 (KM20L2 colon): 8.45 µM
COc1ccc(/C=C2/C[N+](C)(C)C/C(=C/c3ccc(OC)cc3)C2=O)cc1		> 100 µM	51.3 µM	> 100 µM	69.4 µM	> 100 µM	> 100 µM	> 100 µM		
N.N.NC(CS)C(=O)[O-].NC(CS)C(=O)[O-].[Pt+4] (stereo not drawn)		> 50 µM	> 50 µM	> 50 µM		> 50 µM		> 50 µM		GI50 (DLD-1 colon): > 50 µM; GI50 (DMS 273 small cell lung): > 50 µM; GI50 (HOP-18 NSCLC): > 50 µM; GI50 (KM20L2 colon): > 50 µM; GI50 (SNB-78 CNS): > 50 µM
CC1=Cc2cc3[n-]c(cc4nc(cc5[n-]c(cc1n2)cc5C)C(C)=C4CCC(=O)O)c(CCC(=O)O)c3C.[Pd+2]	> 100 µM	35.8 µM	32.7 µM	44.3 µM	20.5 µM	28.7 µM	31.5 µM	30.6 µM		GI50 (DLD-1 colon): 14.5 µM; GI50 (DMS 273 small cell lung): 12 µM; GI50 (HOP-18 NSCLC): 15.8 µM; GI50 (KM20L2 colon): 17.5 µM; GI50 (M19-MEL melanoma): 3.64 µM; GI50 (MDA-N): > 100 µM; GI50 (SNB-78 CNS): 6.17 µM; GI50 (XF 498 CNS): 14.2 µM

Compound	TGI (MDA-N)	TGI (DLD-1 colon)	TGI (DMS 273 small cell lung)	TGI (KM20L2 colon)	TGI (M19-MEL melanoma)	TGI (SNB-78 CNS)	TGI (XF 498 CNS)	TGI (HOP-18 NSCLC)	TGI (RXF-631 renal)	further results
COC(=O)Nc1nc2ccccc2c(=O)[nH]1	50.8 µM									
C[C@]12CCC(=O)C(O)=C1CC[C@@H]1[C@@H]2CC[C@]2(C)C(=O)CC[C@@H]12	> 100 µM	> 100 µM		> 100 µM		> 100 µM	> 100 µM		> 100 µM	
O=C(c1ccccc1)c1c(C(=O)c2ccccc2)c(-c2ccccc2)c2c(-c3ccccc3)sc(-c3ccccc3)c2c1-c1ccccc1		> 100 µM	> 100 µM	> 100 µM	> 100 µM	> 100 µM	> 100 µM		> 100 µM	
C=C1C(=O)OC2CC3(CO3)C3C(O)C(O)CC3(C)CC12 (stereo not drawn)	81.6 µM									
CCOC(CN=c1nc(N(C)C)ss1)OCC	24.8 µM	> 50.8 µM	> 67.9 µM	> 72.5 µM	19.1 µM	51.5 µM	47.1 µM	> 100 µM	32.5 µM	
CCOC(=O)C1C(=O)c2ccccc2CN1Cc1ccccc1 (stereo not drawn)		> 100 µM	> 100 µM	> 100 µM	> 100 µM	> 100 µM	> 100 µM	> 100 µM	> 100 µM	
Cn1c(=O)c2[nH]c(CS(=O)(=O)Cc3nc4c([nH]3)c(=O)n(C)c(=O)n4C)nc2n(C)c1=O	> 100 µM									
CC1(C)OCC(CO)(Nc2nc(N3CC3)nc(N3CC3)n2)CO1	27.9 µM	> 93 µM	25.8 µM	51.8 µM	34.4 µM	> 100 µM	29.3 µM	> 87.6 µM		
O=C(O)c1cc2c(cn1)[nH]c1ccccc12		> 100 µM	> 100 µM	> 100 µM	> 100 µM	> 100 µM		> 100 µM		
CC(=O)OCC1OC(n2c(=O)n(-c3ccccc3)c(=O)c3ccccc32)C(OC(C)=O)C(OC(C)=O)C1OC(C)=O (stereo not drawn)		> 100 µM	> 100 µM	> 100 µM	> 100 µM	> 100 µM		> 100 µM	> 100 µM	
CN(c1ccccc1)C(c1ccccc1)C(O)c1ccccc1 (stereo not drawn)		47.5 µM	34 µM	35.7 µM	42.4 µM	59.6 µM		33.2 µM	43.2 µM	
c1ccc(N=C2c3ccccc3C3=NCCCN32)cc1		> 100 µM	> 100 µM	> 100 µM	> 100 µM	> 100 µM	> 100 µM		> 100 µM	
COC(=O)C1=C(O)C(O)=C(C(=O)OC)C1		> 100 µM	> 100 µM	> 100 µM	> 100 µM	> 100 µM		> 100 µM		
O=[N+]([O-])C1C2C=CC(C2)[C@H]1c1ccccc1Cl (stereo partly drawn)		> 100 µM	> 100 µM	> 100 µM		> 100 µM	> 100 µM	> 100 µM	> 100 µM	
COc1ccc2ccc([Se]c3ccc4ccc(OC)cc4c3)cc2c1		> 100 µM	> 100 µM	> 100 µM	> 100 µM	> 100 µM	> 100 µM	> 100 µM		
CC(=O)/C=C/c1ccc(C2CC(C)=Nc3c(ccc4c3C(=O)c3ccccc3C4=O)N2)cc1 (stereo not drawn)		> 100 µM	> 100 µM	> 100 µM	> 100 µM	> 100 µM	> 100 µM	> 100 µM		
CN(C)c1ccc2c3c(c(=O)oc2c1)CCC3	> 100 µM									
O=C1C(=O)N(c2ccc(Cl)c(Cl)c2)C(=O)C(=O)C1c1nc2ccccc2o1		> 100 µM	> 100 µM	> 100 µM	> 100 µM	> 100 µM	> 100 µM		> 100 µM	
O=C(O)C12C3CCCC1C2CC3 (stereo not drawn)		> 100 µM		> 100 µM	> 100 µM	> 100 µM	> 100 µM	> 100 µM	> 100 µM	
O=C1OC2(c3ccccc3Oc3ccccc32)c2ccccc21		> 100 µM	> 100 µM	> 100 µM	> 100 µM	> 100 µM		> 100 µM		

From PubChem BioAssay (NCI)
